What was measured:
[1] = system: C57B1/6 mice or BDNF+/+ and BDNF± mice; assay: Ethanol self-administration in mice (two-bottle choice); format: in vivo, mouse; conditions: for ethanol consumption: wildtype mice
Method: Voluntary ethanol intake in singly-housed adult male C57B1/6 mice or BDNF+/+ and BDNF±mice was established by placing a bottle containing 10% ethanol in tap water (v/v) on the home cage next to an identical bottle filled with tap water for at least 1 month. Only subjects that consumed at least 40% of their total fluid volume as ethanol were included in these studies. All injections (PBS/10% glycerol vehicle, Tat-KEP27, K252a and/or Tat-RACK1) were conducted at 15:00 hours; ethanol and water intake were measured 18 hours later at 09:00 hours. Treatments were tested using a within-subjects design; subjects received one or two injections per week. Chemicals were administered in injection volumes of 1-3 ml per 100 g body weight. The effect of a deprivation period on consumption was tested by allowing mice continuous access to a bottle of 20% ethanol in tap water and a bottle of tap water on the home cage for 2 weeks. The ethanol bottle was removed for 2 weeks. Intake of 20% ethanol and of water was measured for 4 days after the ethanol was reintroduced.

[2] = target: T1, Trk receptor (Rattus norvegicus, UniProt Q63604); assay: Trk phosphorylation in striatal slices (Western blot); format: cell-based; conditions: 1 μM Tat-RACK1 together with 200 nM K252a, 4 hours
T1 construct: from tissue; host or cells: striatal slices (dorsal striatum and NAc) of Sprague-Dawley rats
Method: Coronal striatal slices ([…]) were prepared from 3-4 week old male Sprague-Dawley rats. Slices were maintained for at least 1 hour in artificial cerebrospinal fluid (αCSF) containing (in mM): 126 NaCl, 1.2 KCl, 1.2 NaH2PO4, 0.01 MgCl2, 2.4 CaCl2, 18 NaHCO3 and 11 glucose saturated with 95% O2/5% CO2 at […]. […] Brain homogenates were prepared after in vivo protein transduction. Adult C57B1/6 mice were injected i.p. with vehicle or 4 mg/kg of Tat-RACK1. Four hours later, brains were immediately removed and homogenized and protein extracts were prepared as described above.
Samples ([…]) were resolved on a 10% SDS-PAGE and transferred to a nitrocellulose membrane. Membranes were probed with the appropriate antibodies and immunoreactivity was detected with enhanced chemilluminescence (Amersham Bioscience) and processed using the STORM system (Molecular Dynamic).

[3] = system: tyrosine hydroxylase (TH); assay: Tyrosine hydroxylase (TH) protein levels in SHSY5Y cells; format: cell-based, human
Method: Panel A: SHSY5Y cells were treated with different concentrations (0, 10, 25, and 100 mM) of ethanol for 24 hours. TH protein levels and control Actin levels were determined by Western blot analysis. Histogram depicts the mean ratio (TI/actin)±SD of 3 experiments. Panel B: Cells were treated with media (control), 100 ng/ml of GDNF for 12 h (lane 1), 100 mM ethanol for 24 hours (lane 2), or 100 mM ethanol for 24 hours to which 100 ng/ml GDNF was added for the last 12 hours (lane 3). The cells were lysed for Western blot analysis. Histogram depicts the mean ratio (TH/actin)±SD of 3 experiments. […] Histogram depicts the mean ratio (TH/actin)±SD of 3 experiments.

[4] = system: BDNF; assay: BDNF expression in primary hippocampal cultures (RT-PCR); format: cell-based, rat; conditions: primary hippocampal neurons
Method: Sprague-Dawley rats (P0) were decapitated and hippocampi were dissected bilaterally. Cells were dissociated by enzyme digestion with papain followed by brief mechanical trituration and plated on poly-D-lysine treated flasks. Cells were plated (1×10^6 cells/chamber) and maintained in Neurobasal media supplemented with B27, penicillin, streptomycin and Glutamax-1 and maintained in culture for 3 weeks. Following treatment, total RNAs were isolated using Trizol reagent and reverse transcribed (RT) using the Reverse Transcription System kit. The RT products were used for analysis of the expression of BDNF and the control gene […] (GPDH) by polymerase chain reaction (PCR) described in (Yaka et al. (2003) J. Biol. Chem. 278: 9630-9638). The PCR products were photographed by Eagle Eye II (Stratagene), and quantified by using NIH Image 1.61.

[5] = system: primary hippocampal neurons; assay: RACK1 / Tat-RACK1 nuclear localization in primary hippocampal neurons (confocal microscopy); format: cell-based, rat; conditions: 100 mM ethanol 30 minutes
Method: Primary hippocampal neurons were washed in cold PBS containing 0.1% Triton X-100, fixed in cold methanol and blocked in PBS containing 0.1% Triton X-100 and 3% Normal Goat Serum. lrmunostaining was performed with monoclonal monoclonal IgG HA antibodies (1:150). Staining was detected with anti FITC antibodies (1:500). Nuclei were detected with the nuclear marker TOTO-3 (1: 10000). Slides were viewed with a laser scanning confocal microscope (Zeiss LSM 510 Meta). Z-field images were processed by obtaining the middle Z field sections using LSM 5 Image Browse (Scion Corporation) and Adobe Photoshop (Adobe Systems Inc.). For immunocytochemistry used to detect the presence of Tat-RACK1 in the brain, C57 mice were injected i.p. with vehicle or 4 mg/kg Tat-RACK1. Animals were decapitated 4 hours post injection and brains were quickly removed and frozen at −50° C. in isopentane. Slide-mounted saggital striatal sections ([…]) were immersed for 10 minutes in cold (−20° C.) mixture of 75% methanol and 25% acetone, re-hydrated, rinsed in PBS and incubated in 10% normal donkey serum. Rat monoclonal anti-HA antibody (1:2,000 in PBS) was applied overnight in a humid chamber. […]

[6] = system: BDNF; assay: BDNF expression in vivo (RT-PCR of tissue punches); design: species or system mouse; conditions: C57 mice, voluntary consumption of 10% ethanol for 2 weeks
Text: The primers for NGF were designed as follows: […]

[7] = system: NGF; conditions: C57 mice, voluntary ethanol consumption, striatum and PFC
Method: Adult male C57B1/6 mice were decapitated 3 hours after the start of the dark cycle, for mice with access to ethanol, or 6 hours following i.p. injection of vehicle or Tat-RACK1 (4 mg/kg), for naïve animals. Brains were rapidly removed and bilateral tissue punches of the striatum and PFC were frozen in liquid nitrogen. BDNF, NGF and GPDH expression were analyzed by RT-PCR as described above for hippocampal cultures. The primers for NGF were designed as follows: […]

[8] = system: ERK1/2; assay: ERK1/2 phosphorylation in SHSY5Y cells; format: cell-based, human; conditions: 10 μM ibogaine 3 hours, U0126 20 μM, PD98059 40 μM 30 minutes or PI-PLC 0.3 unit/ml 1 h pre-incubation
Method: ERK2 and pERK1/2 were detected by Western blot analysis with anti-ERK2 and pERK1/2 antibodies respectively. Line-graph depicts the mean ratio (pERK2/ERK2)±SD of 3 experiments. […] Panel C: Cells were pre-incubated with 0.3 unit/ml PI-PLC for 1 h (lane 3).

[9] = in vivo; cited from earlier work
[10] = system: BDNF; assay: BDNF secretion from dissociated hippocampal neurons (ELISA); format: cell-based, rat; conditions: 1 μM, 6 hours
Method: BDNF or NGF secretion was measured in media from dissociated hippocampal neurons or from striatal slices using Emax ImmunoAssay according to (Balkowiec and Katz (2000) J. Neurosci., 20: 7417-7423)) and (Heaton et al. (2003) Brain Res. Dev. Brain Res. 140: 237-252), respectively. BDNF or NGF concentrations were interpolated from the standard curves (linear range of 7.8-500 pg/ml).

[11] = system: Long Evans rats; assay: Ethanol self-administration in rats after intracerebroventricular (i.c.v.) microinjections; format: in vivo, rat; conditions: i.c.v. microinjection, intake 24 hours after treatment
Method: Adult male Long Evans rats were trained in the two-bottle choice ethanol self-administration procedure as described above for mice. Three weeks after ethanol exposure commenced, a 26 gauge cannula was placed into the right lateral ventricle (stereotaxic coordinates AP: −0.8, ML: −1.4, DV: −3.6, relative to bregma) of anesthetized subjects. Three weeks later, subjects received weekly i.c.v. microinjections of vehicle, Tat-RACK1, or the Tat-peptide (injection volume […]) at approximately 15:30, or 3.5 hours before lights out. Intake was measured 24 hours after treatment. All subjects received vehicle and Tat-RACK1 injections; a subset of subjects was also injected with the Tat-peptide. Cannula locations were verified histologically at the conclusion of the experiment.

T1 sequence (Q63604 32-821): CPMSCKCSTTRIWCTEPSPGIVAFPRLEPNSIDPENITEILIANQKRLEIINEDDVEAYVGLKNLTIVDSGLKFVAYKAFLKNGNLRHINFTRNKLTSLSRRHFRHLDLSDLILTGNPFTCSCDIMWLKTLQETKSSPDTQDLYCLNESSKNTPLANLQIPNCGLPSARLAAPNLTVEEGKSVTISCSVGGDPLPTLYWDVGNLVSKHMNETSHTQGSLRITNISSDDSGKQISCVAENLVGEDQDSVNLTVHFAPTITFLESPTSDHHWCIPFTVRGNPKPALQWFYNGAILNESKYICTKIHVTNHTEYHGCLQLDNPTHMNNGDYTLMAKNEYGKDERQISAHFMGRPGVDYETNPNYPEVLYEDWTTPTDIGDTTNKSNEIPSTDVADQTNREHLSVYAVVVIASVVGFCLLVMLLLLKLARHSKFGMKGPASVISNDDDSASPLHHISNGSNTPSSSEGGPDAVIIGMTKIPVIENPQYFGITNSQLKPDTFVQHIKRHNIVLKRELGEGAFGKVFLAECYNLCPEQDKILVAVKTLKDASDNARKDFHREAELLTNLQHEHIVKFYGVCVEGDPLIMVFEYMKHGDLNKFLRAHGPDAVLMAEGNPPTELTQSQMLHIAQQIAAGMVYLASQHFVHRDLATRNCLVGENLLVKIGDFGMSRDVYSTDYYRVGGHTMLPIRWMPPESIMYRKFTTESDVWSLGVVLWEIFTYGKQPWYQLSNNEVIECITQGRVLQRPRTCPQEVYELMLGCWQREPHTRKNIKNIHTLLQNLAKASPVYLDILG

COC(=O)[C@@]1(O)C[C@H]2O[C@]1(C)n1c3ccccc3c3c4c(c5c6ccccc6n2c5c31)C(=O)NC4 [K252a]
reduction in ethanol intake by Tat-RACK1, co-injection with K252a ([1]; mice, Tat-RACK1 4 mg/kg + K252a): prevented the reduction in ethanol intake | ethanol consumption ([1]; K252a 5 mg/kg i.p.): increased | ethanol consumption ([1]; K252a 25 mg/kg i.p.): increased | Tat-RACK1-induced Trk phosphorylation [2]: reduced

CCO [ethanol]
ethanol concentration resulting in an increase in TH immunoreactivity (as low as) [3]: 10 mM | protein level of TH ([3]; ethanol 24 hours, dose-dependent): significant increase | ethanol concentrations (as low as) that increased BDNF expression ([4]; 0.5 hours): 10 to 25 mM | expression levels of BDNF ([4]; acute ethanol, dose- and time-dependent): increased | BDNF expression ([4]; continuous ethanol 24 or 48 hours): reduced BDNF expression to below basal levels | RACK1 nuclear translocation [5]: translocation of RACK1 into the nucleus | expression levels of BDNF in the prefrontal cortex (PFC) [6]: but not the prefrontal cortex | expression levels of BDNF in the striatum [6]: significantly increased | expression of NGF [7]: no change

N#CC(=C(/N)Sc1ccccc1N)/C(C#N)=C(\N)Sc1ccccc1N [U0126]
ERK1/2 phosphorylation induced by ibogaine [8]: blocked

CC[C@H]1C[C@H]2C[C@H]3c4[nH]c5ccc(O)cc5c4CCN(C2)[C@@H]13 [Noribogaine]
metabolite detection after ibogaine administration [9]: detected at high concentrations within 24 hours after administration

COc1cccc(-c2cc(=O)c3ccccc3o2)c1N [PD98059]
ERK1/2 phosphorylation induced by ibogaine [8]: blocked

YGRKKRRQRRR [Tat-peptide]
secretion of BDNF [10]: no change | ethanol intake [11]: no effect

B1: GDNF: Human glial-cell line derived neurotrophic factor (protein)
chain: SPDKQMAVLPRRERNRQAAAANPENSRGKGRRGQRGKNRGCVLTAIHLNVTDLGLGYETKEELIFRYCSGSCDAAETTYDKILKNLSRNRRLVSDKVGQACCRPIAFDDDLSFLDDNLVYHILRKHSAKRCGCI
ethanol-induced increase in TH immunoreactivity ([3]; 100 mM ethanol 24 hours, GDNF 100 ng/ml or ibogaine 10 μM added for last 12 hours): inhibited

From patent US20050203011A1, “Mitigating symptoms and behaviors of substance abuse by modulating GDNF or BDNF pathway activity” (The Regents of the University of California, priority 2003, published 2005)
